Assay results: patent publication US20040009485A1, “Cellular arrays for the identification of altered gene expression” (priority 2002, published 2004)

Key:
SOS regulon gene fusions = test: Stress response of SOS regulon luxCDABE gene fusions (nalidixic acid); format: cell-based, E. coli; settings: for Nalidixic acid response ratio: 5 μg/ml, 110 minutes, LB, treated/untreated
Experimental: To test the stress responses, one or two single colonies of each selected strain were used to inoculate 5.0 ml of LB medium containing 150 μg/ml of ampicillin. These cultures were grown overnight at 37° C. then diluted by adding 50 μl or 100 μl of the overnight culture into 10.0 ml of fresh LB medium (without ampicillin) and grown with agitation at 37° C. until the culture was in exponential phase with readings on a Klett-Summerson colorimeter containing the red filter of between 10 and 40. These actively growing cultures were immediately used to initiate a stress response experiment by adding 50 μl of cultures to 50 μl of LB medium containing various concentrations of chemical in the wells a 96 well luminometer plate. This division of the actively growing culture at the time of chemical addition ensured identical populations were present when the stress was imposed. Light production was measured in a Dynex ML3000 luminometer at 37° C. The dimensionless units of light production, relative light units (RLU), are obtained by comparison with the light reading from an internal light-emitting diode. The cycle mode of the ML3000 luminometer, similar to previous descriptions (Van Dyk et al., Appl. Environ. Microbiol. 60:1414-120) was used.
The ability of these promoter-luxCDABE fusions to report activation of the SOS stress response was tested using nalidixic acid, a known, potent chemical inducer. The final concentrations of nalidixic acid were 1, 5, 25, and 125 μg/ml for all but strain DPD2293, which was tested at 80, 40, 20, 10, 5, 2.5, and 1.25 μg/ml.
Specificity of responses was tested by measuring the effect of ethanol on these SOS regulon gene fusions.

[1] = tested on: Luxarray 0.5 reporter clones; test: High density Luxarray 0.5 nalidixic acid perturbation (cooled CCD camera); format: cell-based, E. coli; settings: 5 μg/ml, 0-8 hr
Experimental: The clones of Luxarray 0.5 were used to print arrays as described above at a 4×4 density. That is to say that each single spot as in FIG. 3 was replicated 16× in a 4×4 subarray. […] Arrays were printed in triplicate from fresh overnight cultures onto membranes on plates containing LB media. […] Cultures were replaced at 37° C. to continue growing. Images were collected for each array every two hours from 0-8 hr after relocation using a cooled CCD camera (FluorChem 8000: f0.85 lens, 2 min exposure. AlphaInnotech). Spot intensity was determined using ArrayVision™ (Imaging Research, Toronto, Canada).
In contrast, light production from the strain carrying the lac promoter fusion as well as several strains carrying other promoter fusions was decreased.

For CCn1cc(C(=O)O)c(=O)c2ccc(C)nc21 [Nalidixic acid, nalidixic acid], the “Nalidixic acid response ratio” value (SOS regulon gene fusions; dinF fusion, DPD2247 (lux-a.pk085.a5)) was 2.2, the “Nalidixic acid response ratio” value (SOS regulon gene fusions; dinG fusion, DPD2248 (lux-a.pk0024.f5)) was 2.0 and the “Nalidixic acid response ratio” value (SOS regulon gene fusions; dinP fusion, DPD2249 (lux-a.pk055.a3)) was 5.0. The “bioluminescence compared with untreated culture” value (SOS regulon gene fusions; each of the eight SOS fusion strains, at least three concentrations (1-125 μg/ml; DPD2293 1.25-80 μg/ml)) was “increased bioluminescence”, the “Nalidixic acid response ratio” value (SOS regulon gene fusions; recA fusion, DPD2250 (lux-a.pk022.d4)) was 1.8 and the “Nalidixic acid response ratio” value (SOS regulon gene fusions; recA fusion, DPD2251 (lux-a.pk085.b5)) was 2.8. For the same compound, the “Nalidixic acid response ratio” value (SOS regulon gene fusions; ruvA fusion, DPD2293 (lux-a.pk058.f2)) was 4.6, the “Nalidixic acid response ratio” value (SOS regulon gene fusions; uvrA fusion, DPD2253 (lux-a.pk01.b6)) was 1.4 and the “Nalidixic acid response ratio” value (SOS regulon gene fusions; uvrD fusion, DPD2254 (lux-a.pk052.b6)) was 1.2. For the same compound, the “reporter expression, high density array” value ([1]; five documented DNA damage-responsive reporter constructs) was “upregulation of expression” and the “light production, high density array” value ([1]; lac promoter fusion and several other promoter fusions) was “decreased”.
